Assay results published in patent US11717013B1, “Micronutrient combination to reduce blood pressure” (priority 2022, dated 2023).

Target: T1, Angiotensin I Converting Enzyme isolated from cultured human aortic endothelial cells (Homo sapiens, UniProt P12821)
T1 construct: host or cells: human aortic endothelial cells (AoEC), lysed with CelLytic M
Assay: ACE activity assay, ACE isolated from cultured human aortic endothelial cells
Type: biochemical
Conditions: 200 mcg/ml (FIG. 5); read-out: inhibition of ACE1 activity
Experimental: ACE 1 activity: Effects of New Micronutrient composition on catalytic activity of Angiotensin I Converting Enzyme (ACE) was analyzed using recombinant catalytic ACE domain (Sigma) or ACE isolated from cultured human aortic endothelial cells (AoEC) with ACE Activity Assay Kit (Fluorometric, Sigma, Catalog Number CS0002) in accordance with manufacturer's protocol. For preparation of cell lysate ACE human AoEC (Lonza) were plated in 75 cm2 plastic flask at 6th passage and cultured with EGB-2 endothelial cell culture medium (Lonza) in 5%CO2 at 37 °C until cell forming a confluent layer. Cells were washed twice with 10 ml phosphate buffered solution (PBS) and lysated by scratching and resuspending in 5 ml CelLytic™ M solution (Sigma) after 15 min incubation at room temperature. Results are expressed as percentage of untreated controls presented as averages +/− SD from three replicates. The results on FIG. 4 show concentration dependent inhibitory effect of the micronutrient composition for blood pressure lowering on catalytic activity of Angiotensin1 converting enzyme. Changes in ACE1 activity are expressed in % compared to control. The formula applied at 3 mcg/ml inhibits ACE1 by 20% with the most pronounced inhibitory effect of 90% and 97% obtained at 50 mcg/ml and 200 mcg/ml respectively. […]

T1 sequence (P12821 30-1306): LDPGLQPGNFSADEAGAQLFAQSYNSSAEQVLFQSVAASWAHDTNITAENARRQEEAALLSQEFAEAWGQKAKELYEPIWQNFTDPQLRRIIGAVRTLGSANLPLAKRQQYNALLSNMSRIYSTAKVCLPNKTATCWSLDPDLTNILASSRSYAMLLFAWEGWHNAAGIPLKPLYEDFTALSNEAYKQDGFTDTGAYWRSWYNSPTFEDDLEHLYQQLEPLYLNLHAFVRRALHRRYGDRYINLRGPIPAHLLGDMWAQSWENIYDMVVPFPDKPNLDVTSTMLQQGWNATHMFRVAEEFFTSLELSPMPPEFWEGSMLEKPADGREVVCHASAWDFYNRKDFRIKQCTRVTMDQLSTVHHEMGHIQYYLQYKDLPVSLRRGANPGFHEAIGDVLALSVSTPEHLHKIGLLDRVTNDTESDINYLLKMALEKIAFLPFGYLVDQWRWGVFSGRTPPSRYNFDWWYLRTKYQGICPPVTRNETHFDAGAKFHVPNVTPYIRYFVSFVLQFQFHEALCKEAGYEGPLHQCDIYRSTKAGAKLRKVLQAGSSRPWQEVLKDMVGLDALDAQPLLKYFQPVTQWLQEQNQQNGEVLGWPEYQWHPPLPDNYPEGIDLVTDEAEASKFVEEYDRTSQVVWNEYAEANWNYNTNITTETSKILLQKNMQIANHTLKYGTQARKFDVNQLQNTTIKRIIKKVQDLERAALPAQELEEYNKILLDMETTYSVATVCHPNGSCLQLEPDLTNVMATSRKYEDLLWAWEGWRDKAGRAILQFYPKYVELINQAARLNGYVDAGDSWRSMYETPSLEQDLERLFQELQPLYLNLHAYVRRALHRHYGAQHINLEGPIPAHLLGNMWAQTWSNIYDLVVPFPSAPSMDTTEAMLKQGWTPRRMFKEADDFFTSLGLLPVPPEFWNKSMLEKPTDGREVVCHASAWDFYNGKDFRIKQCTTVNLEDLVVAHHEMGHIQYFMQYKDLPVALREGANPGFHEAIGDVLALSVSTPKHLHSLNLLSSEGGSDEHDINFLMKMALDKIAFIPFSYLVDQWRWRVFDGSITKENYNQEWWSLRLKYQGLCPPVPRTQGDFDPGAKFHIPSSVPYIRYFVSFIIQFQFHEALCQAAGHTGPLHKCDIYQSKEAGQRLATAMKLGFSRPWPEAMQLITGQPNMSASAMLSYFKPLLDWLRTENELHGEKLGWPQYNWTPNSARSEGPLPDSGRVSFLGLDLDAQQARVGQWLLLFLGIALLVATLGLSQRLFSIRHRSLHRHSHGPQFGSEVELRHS

- inhibition at 200 µg/mL: 16%
Structure (SMILES): NCCCC[C@H](N[C@@H](CCc1ccccc1)C(=O)O)C(=O)N1CCC[C@H]1C(=O)O [Lisinopril]
